Results as given in patent US9546164B2 (GENENTECH, INC., priority 2013, dated 2017).
Counter-ions that a name gives are not always drawn.

Molecular target: hNav1.7 (Homo sapiens (Human), UniProt Q15858)
Assay: Tritiated sulfonamide competitive binding to membranes from cells expressing hNav1.7 and the β1 subunit;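 note: Filter-bound radioactivity counted by liquid scintillation, nonspecific binding defined with excess unlabelled ligand, IC50 fitted to percent inhibition of specific binding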
Conditions: not given

Sequence of hNav1.7 (Q15858 other isoform, or with tags, fused parts or gaps): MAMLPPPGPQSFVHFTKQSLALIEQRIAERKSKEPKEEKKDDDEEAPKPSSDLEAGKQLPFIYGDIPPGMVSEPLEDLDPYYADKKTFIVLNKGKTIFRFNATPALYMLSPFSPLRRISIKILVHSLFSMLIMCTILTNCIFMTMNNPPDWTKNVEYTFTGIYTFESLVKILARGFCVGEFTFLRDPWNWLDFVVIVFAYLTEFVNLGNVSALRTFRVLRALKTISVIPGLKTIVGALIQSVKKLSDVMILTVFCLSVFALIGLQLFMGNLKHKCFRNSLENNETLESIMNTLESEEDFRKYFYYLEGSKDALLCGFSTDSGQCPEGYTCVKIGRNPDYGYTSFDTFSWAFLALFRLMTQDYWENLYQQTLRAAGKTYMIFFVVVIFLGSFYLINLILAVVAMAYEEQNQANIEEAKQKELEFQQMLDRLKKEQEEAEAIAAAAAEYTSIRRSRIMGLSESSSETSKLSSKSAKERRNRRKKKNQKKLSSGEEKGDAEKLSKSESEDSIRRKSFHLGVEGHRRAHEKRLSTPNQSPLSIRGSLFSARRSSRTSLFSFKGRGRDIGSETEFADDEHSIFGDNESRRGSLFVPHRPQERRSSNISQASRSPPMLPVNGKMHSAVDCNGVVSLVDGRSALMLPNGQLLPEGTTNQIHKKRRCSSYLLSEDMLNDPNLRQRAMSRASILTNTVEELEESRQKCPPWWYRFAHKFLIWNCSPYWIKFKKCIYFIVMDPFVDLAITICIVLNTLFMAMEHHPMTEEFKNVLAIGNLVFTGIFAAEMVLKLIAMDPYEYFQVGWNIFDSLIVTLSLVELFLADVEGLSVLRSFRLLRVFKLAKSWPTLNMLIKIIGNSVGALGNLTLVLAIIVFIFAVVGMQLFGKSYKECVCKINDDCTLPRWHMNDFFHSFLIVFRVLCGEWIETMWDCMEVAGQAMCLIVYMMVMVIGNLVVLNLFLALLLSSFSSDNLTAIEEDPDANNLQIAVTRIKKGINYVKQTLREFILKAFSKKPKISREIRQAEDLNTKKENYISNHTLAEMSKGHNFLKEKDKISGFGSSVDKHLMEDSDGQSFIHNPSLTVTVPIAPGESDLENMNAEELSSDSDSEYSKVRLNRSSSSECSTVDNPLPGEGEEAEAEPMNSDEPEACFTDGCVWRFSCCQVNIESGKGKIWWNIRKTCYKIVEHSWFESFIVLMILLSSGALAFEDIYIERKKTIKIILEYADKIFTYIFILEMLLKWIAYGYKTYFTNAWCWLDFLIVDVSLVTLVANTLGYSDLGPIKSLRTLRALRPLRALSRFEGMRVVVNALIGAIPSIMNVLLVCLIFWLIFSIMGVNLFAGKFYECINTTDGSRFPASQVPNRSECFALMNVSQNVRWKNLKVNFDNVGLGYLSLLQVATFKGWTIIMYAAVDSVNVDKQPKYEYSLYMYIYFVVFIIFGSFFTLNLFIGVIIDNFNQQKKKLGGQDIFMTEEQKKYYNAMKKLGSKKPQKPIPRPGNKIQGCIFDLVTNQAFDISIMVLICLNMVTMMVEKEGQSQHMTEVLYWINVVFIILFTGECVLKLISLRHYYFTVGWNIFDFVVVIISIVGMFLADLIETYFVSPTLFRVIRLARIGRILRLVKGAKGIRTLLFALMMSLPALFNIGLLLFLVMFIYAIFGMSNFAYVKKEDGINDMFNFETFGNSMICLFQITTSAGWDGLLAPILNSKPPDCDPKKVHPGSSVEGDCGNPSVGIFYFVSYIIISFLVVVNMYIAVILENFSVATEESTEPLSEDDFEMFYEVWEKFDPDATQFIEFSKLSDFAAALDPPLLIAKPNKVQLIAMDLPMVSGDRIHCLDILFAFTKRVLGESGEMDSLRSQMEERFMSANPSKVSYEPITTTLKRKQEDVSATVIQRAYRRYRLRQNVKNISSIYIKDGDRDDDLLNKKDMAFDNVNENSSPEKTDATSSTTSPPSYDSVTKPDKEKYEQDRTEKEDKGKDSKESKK
Sequence of hNav1.7 (Q07699 19-218 partner): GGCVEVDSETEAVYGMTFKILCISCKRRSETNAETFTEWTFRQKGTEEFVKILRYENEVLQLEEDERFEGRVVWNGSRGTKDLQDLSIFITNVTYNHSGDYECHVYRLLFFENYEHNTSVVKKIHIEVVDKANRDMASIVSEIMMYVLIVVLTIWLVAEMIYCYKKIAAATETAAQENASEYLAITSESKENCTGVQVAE

| IC50 [nM] | Structure (SMILES) |
| --- | --- |
| 11.9 | CS(=O)(=O)NC(=O)c1cc(C2CC2)c(CN2CCC(Oc3ccc(Cl)cc3Cl)CC2)cc1F [Example 546, 5-cyclopropyl-4-((4-(2,4-dichlorophenoxy)piperidin-1-yl)methyl)-2-fluoro-N-(methylsulfonyl)benzamide, trifluoroacetic acid salt] |
| 4.4 | O=C(NS(=O)(=O)C1CC1)c1cc(C2CC2)c(CN2CCC(Oc3cc(Cl)cc(OC(F)(F)F)c3)CC2)cc1F [Example 549, 4-((4-(3-chloro-5-(trifluoromethoxy)phenoxy)piperidin-1-yl)methyl)-5-cyclopropyl-N-(cyclopropylsulfonyl)-2-fluorobenzamide, trifluoroacetic acid salt] |
| 3.1 | CC1(C)CN(Cc2cc(F)c(C(=O)NS(=O)(=O)C3CC3)cc2C2CC2)CCC1Oc1cc(C(F)(F)F)c(Cl)cn1 (centres unmarked) [Example 562, 4-((4-((5-chloro-4-(trifluoromethyl)pyridin-2-yl)oxy)-3,3-dimethylpiperidin-1-yl)methyl)-5-cyclopropyl-N-(cyclopropylsulfonyl)-2-fluorobenzamide, trifluoroacetic acid salt] |
| 4.1 | C[C@H](c1cc(Cl)cc(Cl)c1)N1CCN(Cc2cc(F)c(C(=O)NS(C)(=O)=O)cc2C2CC2)C[C@@H]1C [Example 565, 5-cyclopropyl-4-(((S)-4-((R)-1-(3,5-dichlorophenyl)ethyl)-3-methylpiperazin-1-yl)methyl)-2-fluoro-N-(methylsulfonyl)benzamide] |
| 15.2 | C[C@H]1CN(Cc2cc(F)c(C(=O)NS(C)(=O)=O)cc2C2CC2)CCN1[C@@H](C)c1cc(Cl)cc(Cl)c1 [Example 567, 5-cyclopropyl-4-(((S)-4-((S)-1-(3,5-dichlorophenyl)ethyl)-3-methylpiperazin-1-yl)methyl)-2-fluoro-N-(methylsulfonyl)benzamide] |
| 21.6 | C[C@@H]1CN(Cc2cc(F)c(C(=O)NS(=O)(=O)C3CC3)cc2C2CC2)CCN1[C@@H](C)c1cc(Cl)cc(Cl)c1 [Example 572, 5-cyclopropyl-N-(cyclopropylsulfonyl)-4-(((R)-4-((S)-1-(3,5-dichlorophenyl)ethyl)-3-methylpiperazin-1-yl)methyl)-2-fluorobenzamide] |

Continued, molecule first:

| Structure (SMILES) | IC50 [nM] |
| --- | --- |
| O=C(NS(=O)(=O)C1CC1)c1cc(C2CC2)c(CN2CCC(Oc3ccc(Cl)cc3Cl)CC2)cc1F [Example 547, 5-cyclopropyl-N-(cyclopropylsulfonyl)-4-((4-(2,4-dichlorophenoxy)piperidin-1-yl)methyl)-2-fluorobenzamide, trifluoroacetic acid salt] | 8.2 |
| CS(=O)(=O)NC(=O)c1cc(C2CC2)c(CN2CCC(Oc3cc(Cl)cc(OC(F)(F)F)c3)CC2)cc1F [Example 548, 4-((4-(3-chloro-5-(trifluoromethoxy)phenoxy)piperidin-1-yl)methyl)-5-cyclopropyl-2-fluoro-N-(methylsulfonyl)benzamide, trifluoroacetic acid salt] | 3.7 |
| O=C(NS(=O)(=O)C1CC1)c1cc(C2CC2)c(CN2C[C@@H]3C[C@H]2CN3S(=O)(=O)c2cc(Cl)cc(Cl)c2)cc1F [Example 559, 5-cyclopropyl-N-(cyclopropylsulfonyl)-4-(((1S,4S)-5-((3,5-dichlorophenyl)sulfonyl)-2,5-diazabicyclo[2.2.1]heptan-2-yl)methyl)-2-fluorobenzamide, trifluoroacetic acid salt] | 18.9 |
| CC1(C)CN(Cc2cc(F)c(C(=O)NS(C)(=O)=O)cc2C2CC2)CCC1Oc1cc(C(F)(F)F)c(Cl)cn1 (centres unmarked) [Example 561, 4-((4-((5-chloro-4-(trifluoromethyl)pyridin-2-yl)oxy)-3,3-dimethylpiperidin-1-yl)methyl)-5-cyclopropyl-2-fluoro-N-(methylsulfonyl)benzamide, trifluoroacetic acid salt] | 2.8 |
| C[C@@H](c1cc(Cl)cc(Cl)c1)N1C[C@@H]2C[C@H]1CN2Cc1cc(F)c(C(=O)NS(=O)(=O)C2CC2)cc1C1CC1 [Example 564, 5-cyclopropyl-N-(cyclopropylsulfonyl)-4-(((1S,4S)-5-((S)-1-(3,5-dichlorophenyl)ethyl)-2,5-diazabicyclo[2.2.1]heptan-2-yl)methyl)-2-fluorobenzamide, trifluoroacetic acid salt] | 3.6 |
| C[C@H](c1cc(Cl)cc(Cl)c1)N1CCN(Cc2cc(F)c(C(=O)NS(=O)(=O)C3CC3)cc2C2CC2)C[C@@H]1C [Example 566, 5-cyclopropyl-N-(cyclopropylsulfonyl)-4-(((S)-4-((R)-1-(3,5-dichlorophenyl)ethyl)-3-methylpiperazin-1-yl)methyl)-2-fluorobenzamide] | 2.7 |
| C[C@H]1CN(Cc2cc(F)c(C(=O)NS(=O)(=O)C3CC3)cc2C2CC2)CCN1[C@@H](C)c1cc(Cl)cc(Cl)c1 [Example 568, 5-cyclopropyl-N-(cyclopropylsulfonyl)-4-(((S)-4-((S)-1-(3,5-dichlorophenyl)ethyl)-3-methylpiperazin-1-yl)methyl)-2-fluorobenzamide] | 9.5 |
| C[C@@H]1CN(Cc2cc(F)c(C(=O)NS(=O)(=O)C3CC3)cc2C2CC2)CCN1[C@H](C)c1cc(Cl)cc(Cl)c1 [Example 570, 5-cyclopropyl-N-(cyclopropylsulfonyl)-4-(((R)-4-((R)-1-(3,5-dichlorophenyl)ethyl)-3-methylpiperazin-1-yl)methyl)-2-fluorobenzamide] | 2.9 |
| C[C@@H]1CN(Cc2cc(F)c(C(=O)NS(C)(=O)=O)cc2C2CC2)CCN1[C@@H](C)c1cc(Cl)cc(Cl)c1 [Example 571, 5-cyclopropyl-4-(((R)-4-((S)-1-(3,5-dichlorophenyl)ethyl)-3-methylpiperazin-1-yl)methyl)-2-fluoro-N-(methylsulfonyl)benzamide] | 44.3 |

Same assay, conditions: read-out: Ligand Binding Assay; 100 pM [3H]compound, membranes with hNav1.7 and β1 subunit, 18 h, room temperature

| IC50 [nM] | Structure (SMILES) |
| --- | --- |
| 2.9 | O=C(NS(=O)(=O)C1CC1)c1cc(C2CC2)c(OCC2CCN(c3cc(C(F)(F)F)c(Cl)cn3)CC2)cc1F [Example 555, 4-((1-(5-chloro-4-(trifluoromethyl)pyridin-2-yl)piperidin-4-yl)methoxy)-5-cyclopropyl-N-(cyclopropylsulfonyl)-2-fluorobenzamide] |
| 2.1 | CC1(COc2cc(F)c(C(=O)NS(C)(=O)=O)cc2C2CC2)CCN(c2cc(C(F)(F)F)c(Cl)cn2)CC1 [Example 556, 4-((1-(5-chloro-4-(trifluoromethyl)pyridin-2-yl)-4-methylpiperidin-4-yl)methoxy)-5-cyclopropyl-2-fluoro-N-(methylsulfonyl)benzamide] |

More lines, now with the values behind:

| Structure (SMILES) | IC50 [nM] |
| --- | --- |
| CS(=O)(=O)NC(=O)c1cc(C2CC2)c(CN2[C@@H]3CC[C@H]2C[C@@H](Oc2cc(C(F)(F)F)c(Cl)cn2)C3)cc1F [Example 550, 4-(((1R,3r,5S)-3-((5-chloro-4-(trifluoromethyl)pyridin-2-yl)oxy)-8-azabicyclo[3.2.1]octan-8-yl)methyl)-5-cyclopropyl-2-fluoro-N-(methylsulfonyl)benzamide, trifluoroacetic acid salt] | 13.6 |
| O=C(NS(=O)(=O)C1CC1)c1cc(C2CC2)c(CN2[C@@H]3CC[C@H]2C[C@@H](Oc2cc(C(F)(F)F)c(Cl)cn2)C3)cc1F [Example 551, 4-(((1R,3r,5S)-3-((5-chloro-4-(trifluoromethyl)pyridin-2-yl)oxy)-8-azabicyclo[3.2.1]octan-8-yl)methyl)-5-cyclopropyl-N-(cyclopropylsulfonyl)-2-fluorobenzamide, trifluoroacetic acid salt] | 7.5 |
| CS(=O)(=O)NC(=O)c1cc(C2CC2)c(OCC2CCN(c3cc(C(F)(F)F)c(Cl)cn3)CC2)cc1F [Example 554, 4-((1-(5-chloro-4-(trifluoromethyl)pyridin-2-yl)piperidin-4-yl)methoxy)-5-cyclopropyl-2-fluoro-N-(methylsulfonyl)benzamide] | 3.2 |
| CC1(COc2cc(F)c(C(=O)NS(=O)(=O)C3CC3)cc2C2CC2)CCN(c2cc(C(F)(F)F)c(Cl)cn2)CC1 [Example 557, 4-((1-(5-chloro-4-(trifluoromethyl)pyridin-2-yl)-4-methylpiperidin-4-yl)methoxy)-5-cyclopropyl-N-(cyclopropylsulfonyl)-2-fluorobenzamide] | 2.7 |
| CS(=O)(=O)NC(=O)c1cc(C2CC2)c(CN2[C@@H]3CC[C@H]2C[C@@H](Oc2cc(Cl)cc(OC(F)(F)F)c2)C3)cc1F [Example 560, 4-(((1R,3r,5S)-3-(3-chloro-5-(trifluoromethoxy)phenoxy)-8-azabicyclo[3.2.1]octan-8-yl)methyl)-5-cyclopropyl-2-fluoro-N-(methylsulfonyl)benzamide, trifluoroacetic acid salt] | 2.8 |
| CS(=O)(=O)NC(=O)c1cc(C2CC2)c(O[C@H]2CCCN(Cc3ccc(F)cc3Cl)C2)cc1F [Example 573, (S)-4-((1-(2-chloro-4-fluorobenzyl)piperidin-3-yl)oxy)-5-cyclopropyl-2-fluoro-N-(methylsulfonyl)] | 107 |
| CC1(COc2cc(F)c(C(=O)NS(C)(=O)=O)cc2C2CC2)CCN(C(c2ccccc2)c2ccccc2)CC1 [Example 574, 4-((1-benzhydryl-4-methylpiperidin-4-yl)methoxy)-5-cyclopropyl-2-fluoro-N-(methylsulfonyl)benzamide] | 2.9 |

Same assay, conditions: read-out: Ligand Binding Assay; 100 pM [3H]compound, membranes with hNav1.7 and β1 subunit, 18 h, room temperature; trifluoroacetic acid salt

| Structure (SMILES) | IC50 [nM] |
| --- | --- |
| CS(=O)(=O)NC(=O)c1cc(C2CC2)c(CN2[C@@H]3CC[C@H]2C[C@@H](Oc2ncc(C(F)(F)F)cc2Cl)C3)cc1F [Example 552, 4-(((1R,3r,5S)-3-((3-chloro-5-(trifluoromethyl)pyridin-2-yl)oxy)-8-azabicyclo[3.2.1]octan-8-yl)methyl)-5-cyclopropyl-2-fluoro-N-(methylsulfonyl)benzamide, trifluoroacetic acid salt] | 7 |
| CS(=O)(=O)NC(=O)c1cc(C2CC2)c(CN2[C@@H]3CC[C@H]2C[C@@H](Oc2ncc(C(F)(F)F)cc2Cl)C3)cc1F [Example 553, 4-(((1R,3r,5S)-3-((3-chloro-5-(trifluoromethyl)pyridin-2-yl)oxy)-8-azabicyclo[3.2.1]octan-8-yl)methyl)-5-cyclopropyl-2-fluoro-N-(methylsulfonyl)benzamide, trifluoroacetic acid salt] | 6.1 |
